The source of these data is PubChem BioAssay AID1259411 (Chemical Carcinogenesis Research Information System (CCRIS), 2018).

The test system of this data set is rodent carcinogenicity bioassays, tumor incidence. Briefly: CCRIS carcinogenicity studies. The text has this:
The CCRIS database contains chemical records with carcinogenicity, mutagenicity, tumor promotion, and tumor inhibition test results. It was developed by the National Cancer Institute (NCI). Data are derived from studies cited in primary journals, current awareness tools, NCI reports, and other sources. Test results have been reviewed by experts in carcinogenesis and mutagenesis.
CCRIS provides historical information from the years 1985 - 2011. It is no longer updated.
This is an archive assay for CCRIS carcinogenicity studies.

The source made the active and inactive calls. No rule for the calls is given here.

For the compound `C[C@H]1O[C@@H]1Cl`, the carcinogen call was “active; positive” (Species: MOUSE, Strain/Sex: ICR/FEMALE, Route: DERMAL, Dose: 10 MG IN 0.1 ML ACETONE 3/WK FOR LIFE, Tumor Site: Type of Lesion: INTEGUMENTARY SYSTEM (SKIN): PAPILLOMA, SQUAMOUS CELL CARCINOMA) and “active; positive” (Species: MOUSE, Strain/Sex: ICR/FEMALE, Route: SUBCUTANEOUS, Dose: 1 MG IN 0.05 ML TRICAPRYLIN 1/WK FOR LIFE, Tumor Site: Type of Lesion: INJECTION SITE: FIBROSARCOMA, CARCINOMA).

As to `Cc1cc(Cl)ccc1OCC(=O)O`, the carcinogen call is “inactive; negative” (Species: MOUSE, Strain/Sex: B6C3F1/FEMALE, Route: ORAL, Dose: 0, 20, 100, 500 PPM IN DIET FOR 104 WK (STUDY DURATION: 104 WK), Dose: 0, 20, 100, 500 PPM IN DIET FOR 104 WK (STUDY DURATION: 104 WK)); “inactive; negative” (Species: MOUSE, Strain/Sex: B6C3F1/MALE, Route: ORAL, Dose: 0, 20, 100, 500 PPM IN DIET FOR 104 WK (STUDY DURATION: 104 WK), Dose: 0, 20, 100, 500 PPM IN DIET FOR 104 WK (STUDY DURATION: 104 WK)); “inactive; negative” (Species: NEWT, Route: IMMERSION, Dose: 0, 100, 200, 400 PPM 4 D/WK FOR 12 MO (STUDY DURATION: 24 MO), Dose: 0, 100, 200, 400 PPM 4 D/WK FOR 12 MO (STUDY DURATION: 24 MO)); “inactive; negative” (Species: RAT, Strain/Sex: WISTAR/FEMALE, Route: ORAL, Dose: 0, 20, 80, 320 PPM IN DIET FOR 104 WK (STUDY DURATION: 104 WK), Dose: 0, 20, 80, 320 PPM IN DIET FOR 104 WK (STUDY DURATION: 104 WK)); “inactive; negative” (Species: RAT, Strain/Sex: WISTAR/MALE, Route: ORAL, Dose: 0, 20, 80, 320 PPM IN DIET FOR 104 WK (STUDY DURATION: 104 WK), Dose: 0, 20, 80, 320 PPM IN DIET FOR 104 WK (STUDY DURATION: 104 WK)).

On to `O=C1OCCO1`, for which the carcinogen call (Species: RAT, Strain/Sex: STRAIN-CD/FEMALE, Route: ORAL, Dose: 25000, 50000 PPM IN DIET FOR 78 WK) is “inactive; negative” and the carcinogen call (Species: RAT, Strain/Sex: STRAIN-CD/MALE, Route: ORAL, Dose: 25000, 44360 PPM IN DIET FOR 78 WK, TWA) is “inactive; negative”.

For `CC/C=C/C=C/C=C/C=C/C=C/OC[C@@H](O)CO`, the carcinogen call is “inactive; negative” (Species: MOUSE, Strain/Sex: ICR/FEMALE, Route: INTRAPERITONEAL, Dose: 0, 2.6 MG/KG IN DMSO ON D 1 AND D 3 THEN 0, 5.2 MG/KG IN DMSO ON D 7, 10, 14 AND (STUDY DURATION: 21 MO), Dose: 0, 2.6 MG/KG IN DMSO ON D 1 AND D 3 THEN 0, 5.2 MG/KG IN DMSO ON D 7, 10, 14 AND (STUDY DURATION: 21 MO)); “active; positive” (Species: MOUSE, Strain/Sex: ICR/MALE, Route: INTRAPERITONEAL, Dose: 0, 2.6 MG/KG IN DMSO ON D 1 AND D 3 THEN 0, 5.2 MG/KG IN DMSO ON D 7, 10, 14 AND (STUDY DURATION: 21 MO), Dose: 0, 2.6 MG/KG IN DMSO ON D 1 AND D 3 THEN 0, 5.2 MG/KG IN DMSO ON D 7, 10, 14 AND (STUDY DURATION: 21 MO), Tumor Site: Type of Lesion: LIVER: ADENOMA, CARCINOMA, LUNG: ADENOMA, CARCINOMA, GLANDULAR STOMACH: ADENOCARCINOMA, SUBCUTANEOUS TISSUE: FIBROSARCOM, Tumor Site: Type of Lesion: LIVER: ADENOMA, CARCINOMA, LUNG: ADENOMA, CARCINOMA, GLANDULAR STOMACH: ADENOCARCINOMA, SUBCUTANEOUS TISSUE: FIBROSARCOM); “inactive; negative” (Species: RAT, Strain/Sex: F344/MALE, Route: INTRARECTAL, Dose: 0, 5, 10 NANOMOLAR IN 0.5 ML T-E BUFFER AND METHANOL SATURATED WITH ARGON 1/WK FOR 85 WK (STUDY DURATION: 28 MO), Dose: 0, 5, 10 NANOMOLAR IN 0.5 ML T-E BUFFER AND METHANOL SATURATED WITH ARGON 1/WK FOR 85 WK (STUDY DURATION: 28 MO)); “inactive; negative” (Species: RAT, Strain/Sex: F344/MALE, Route: INTRARECTAL, Dose: 0, 14 MG/KG IN DMSO: EMULPHOR-SALINE 34WK FOR 9 WK THEN 2/WK FOR 12 WK AND 1/WK FOR 50 WK (STUDY DURATION: 92 WK)).

As to `COc1cc(C(C)(C)C)c(O)c(C(C)(C)C)c1`, the carcinogen call (Species: HAMSTER, Strain/Sex: SYRIAN/MALE, Route: ORAL, Dose: 1% IN DIET FOR 24 WK (STUDY DURATION: 24 WK)) is “inactive; negative”.

On to `CC(O)C(=O)O` (configuration not stated), for which the carcinogen call is, setting by setting: (Species: RAT, Strain/Sex: F344/FEMALE, Route: ORAL, Dose: 0, 2.5, 5% IN DRINKING WATER FOR 104 WK (MEAN TOTAL INTAKE 0; 237.7; 412.1 G/RAT) (STUDY DURATION: 113 WK), Dose: 0, 2.5, 5% IN DRINKING WATER FOR 104 WK (MEAN TOTAL INTAKE 0; 237.7; 412.1 G/RAT) (STUDY DURATION: 113 WK)) “inactive; negative”; (Species: RAT, Strain/Sex: F344/MALE, Route: ORAL, Dose: 0, 2.5, 5% IN DRINKING WATER FOR 104 WK (MEAN TOTAL INTAKE 0; 329.4; 625.4 G/RAT) (STUDY DURATION: 113 WK), Dose: 0, 2.5, 5% IN DRINKING WATER FOR 104 WK (MEAN TOTAL INTAKE 0; 329.4; 625.4 G/RAT) (STUDY DURATION: 113 WK)) “inactive; negative”.

In the case of `ClCOCc1ccc(COCCl)cc1`, the carcinogen call was “active; positive” (Species: MOUSE, Strain/Sex: ICR/HA SWISS/FEMALE, Route: DERMAL, Dose: 0, 0.3 MG IN 0.1 ML CYCLOHEXANE 3/WK FOR 502 D (STUDY DURATION: 570 D), Tumor Site: Type of Lesion: SKIN: PAPILLOMA, SKIN: CARCINOMA) and “active; positive” (Species: MOUSE, Strain/Sex: ICR/HA SWISS/FEMALE, Route: SUBCUTANEOUS, Dose: 0, 0.3 MG IN 0.05 ML TRICAPRYLIN 1/WK FOR 569 D (STUDY DURATION: 570 D), Tumor Site: Type of Lesion: INJECTION SITE: SARCOMA).

On to `Cc1cc2c(c3ccc4ccccc4c13)[C@@H]1O[C@@H]1[C@H](O)[C@H]2O`, for which the carcinogen call reads like this: (Species: MOUSE, Strain/Sex: ICR/FEMALE, Route: INTRAPERITONEAL, Dose: 8 NMOL/5 µL DMSO ON DAY 1, 16 NMOL/10 µL ON DAY 8, AND 32 NMOL/20 µL ON DAY 15 OF AGE (STUDY DURATION: 35 WK)) “inactive; negative”; (Species: MOUSE, Strain/Sex: ICR/MALE, Route: INTRAPERITONEAL, Dose: 8 NMOL/5 µL DMSO ON DAY 1, 16 NMOL/10 µL ON DAY 8, AND 32 NMOL/20 µL ON DAY 15 OF AGE (STUDY DURATION: 35 WK), Tumor Site: Type of Lesion: LUNG: TUMORS) “active; positive”.

Take `O[C@H]1C=Cc2nc3c(ccc4ccccc43)cc2[C@@H]1O`: the carcinogen call is “active; positive” (Species: MOUSE, Strain/Sex: SWISS/FEMALE, Route: INTRAPERITONEAL, Dose: 0, 1.05 UMOL GIVEN AS 150 NMOL IN 5 µL DMSO WITHIN 24 HR OF BIRTH, 300 NMOL IN 10 µL DMSO ON D 8 OF LIFE, AND 600 NMOL I, Tumor Site: Type of Lesion: LUNG: ADENOMA) and “active; positive” (Species: MOUSE, Strain/Sex: SWISS/MALE, Route: INTRAPERITONEAL, Dose: 0, 1.05 UMOL GIVEN AS 150 NMOL IN 5 µL DMSO WITHIN 24 HR OF BIRTH, 300 NMOL IN 10 µL DMSO ON D 8 OF LIFE, AND 600 NMOL I, Tumor Site: Type of Lesion: LUNG: ADENOMA).
